Reference: US20240116985A1, “STAPLED PEPTIDES AND METHODS THEREOF” (priority 2020, published 2024)
Like-named read-outs stand apart in the source and are kept apart here.

How the values were obtained:
[1] = biological target: T1, full-length beta-Catenin (Uniprot ID P35222) (Homo sapiens, UniProt P35222); test: Fluorescence polarization IC50 (beta-catenin / 5FAM-TCF4 10-53 competition); assay type: binding
T1 construct: 10 nM full-length beta-Catenin (Uniprot ID P35222)
T1 sequence (P35222 1-781): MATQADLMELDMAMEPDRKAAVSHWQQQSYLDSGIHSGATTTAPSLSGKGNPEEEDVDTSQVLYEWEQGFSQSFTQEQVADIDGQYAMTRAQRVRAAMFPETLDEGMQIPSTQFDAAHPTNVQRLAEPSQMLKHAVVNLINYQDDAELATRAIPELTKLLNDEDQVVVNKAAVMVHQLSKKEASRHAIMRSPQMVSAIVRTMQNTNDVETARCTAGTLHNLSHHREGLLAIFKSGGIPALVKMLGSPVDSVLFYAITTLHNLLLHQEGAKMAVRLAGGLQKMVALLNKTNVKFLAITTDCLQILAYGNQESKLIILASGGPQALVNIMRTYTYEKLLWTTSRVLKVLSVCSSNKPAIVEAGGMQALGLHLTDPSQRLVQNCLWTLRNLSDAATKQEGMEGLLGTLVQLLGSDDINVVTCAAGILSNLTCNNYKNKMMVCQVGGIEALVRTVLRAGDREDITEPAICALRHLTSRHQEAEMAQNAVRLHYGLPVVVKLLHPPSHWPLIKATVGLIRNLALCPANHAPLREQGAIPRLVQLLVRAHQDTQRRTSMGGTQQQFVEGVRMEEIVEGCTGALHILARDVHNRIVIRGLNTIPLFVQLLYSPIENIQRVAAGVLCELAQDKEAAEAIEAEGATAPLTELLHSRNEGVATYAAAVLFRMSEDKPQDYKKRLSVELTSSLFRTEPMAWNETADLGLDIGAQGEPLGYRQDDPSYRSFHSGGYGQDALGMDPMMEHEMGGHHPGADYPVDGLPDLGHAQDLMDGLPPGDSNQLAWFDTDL

CHI Log D procedure = assay type: physicochemical
[2] = fluorescence polarization, read-out: beta-Catenin FP IC50
[3] = Table E2-1, read-out: beta-Catenin FP IC50
[4] = fluorescence polarization, beta-catenin, read-out: FP EC50

| SMILES | IC50 [1, 2] | chromatographic logD (CHI Log D procedure; pH 7.4, CHI Log D) | CHI Log D (CHI Log D procedure; pH 7.4) | further results |
| --- | --- | --- | --- | --- |
| CC(=O)N1CCC[C@]12CC=CCCCC1(CCCC=CCCCCCC[C@@](C)(C(=O)N[C@@H](Cc3cccc(F)c3)C(=O)N[C@@H](Cc3csc4ccccc34)C(=O)N[C@@H](CCC(N)=O)C(N)=O)NC(=O)[C@H](CCC(N)=O)NC(=O)[C@H](Cc3cccc(C)c3)NC(=O)[C@H](C)NC(=O)[C@H](C)NC(=O)[C@H](CN(CC(=O)O)CC(F)(F)F)NC(=O)[C@H](CC(=O)O)NC1=O)NC(=O)[C@H](C)NC(=O)[C@H](CC(=O)O)NC2=O (stereo partly drawn) [I-404, Ac-PL3-Asp-Ala-B5-Asp-TfeGA-Ala-Ala-3MeF-Gln-S8-3FF-BztA-Gln-NH2] | 1850 nM | 2.4 |  |  |
| CC(=O)N1CCC[C@]12CC=CCCCC1(CCCC=CCCCCCC[C@@](C)(C(=O)N[C@@H](Cc3ccccc3)C(=O)N[C@@H](Cc3c[nH]c4c(F)cccc34)C(=O)N[C@@H](CCC(N)=O)C(N)=O)NC(=O)[C@H](C(C)C)NC(=O)[C@H](Cc3ccccc3)NC(=O)[C@H](C)NC(=O)[C@H](C)NC(=O)[C@H](CCC(=O)O)NC(=O)[C@H](CC(=O)O)NC1=O)NC(=O)[C@H](C)NC(=O)[C@H](CC(=O)O)NC2=O (stereo partly drawn) [I-166, Ac-PL3-Asp-Ala-B5-Asp-Glu-Ala-Ala-Phe-Val-S8-Phe-7FW-Gln-NH2] |  | 2.06 |  | IC50 [1, 3]: 2160 nM |
| CC(=O)N1CCC[C@]12CC=CCCCC1(CCCC=CCCCCCC[C@@](C)(C(=O)N[C@@H](Cc3ccccc3)C(=O)N[C@@H](Cc3c[nH]c4ccccc34)C(N)=O)NC(=O)[C@H](C(C)C)NC(=O)[C@H](Cc3ccccc3)NC(=O)[C@H](C)NC(=O)[C@H](C)NC(=O)[C@H](CC(=O)O)NC(=O)[C@H](CC(=O)O)NC1=O)NC(=O)[C@H](C)NC(=O)[C@H](CC(=O)O)NC2=O (stereo partly drawn) [I-290, Ac-PL3-Asp-Ala-B5-Asp-Asp-Ala-Ala-Phe-Val-S8-Phe-Trp-NH2] |  |  | 2.271 | IC50 [1, 3]: 3290 nM; IC50 [1, 4]: 3290 nM |
| CC(=O)N1CCC[C@]12CC=CCCCC1(CCCC=CCCCCCC[C@@](C)(C(=O)N[C@@H](Cc3ccccc3)C(=O)N[C@@H](Cc3csc4ccccc34)C(=O)N[C@@H](CCC(N)=O)C(N)=O)NC(=O)[C@H](CC(N)=O)NC(=O)[C@H](Cc3ccccc3)NC(=O)[C@H](C)NC(=O)[C@H](C)NC(=O)[C@H](CC(=O)O)NC(=O)[C@H](CC(=O)O)NC1=O)NC(=O)[C@H](C(C)C)NC(=O)[C@H](CC(=O)O)NC2=O (stereo partly drawn) [I-566, Ac-PL3-Asp-Val-B5-Asp-Asp-Ala-Ala-Phe-Asn-S8-Phe-BztA-Gln-NH2] | 76 nM |  | 2.175 | IC50 ([1]; read-out: FP EC50): 76 nM |
| CC(=O)N1CCC[C@]12CC=CCCCC1(CCCC=CCCCCCC[C@@](C)(C(=O)N[C@@H](Cc3ccccc3)C(=O)N[C@@H](Cc3csc4ccccc34)C(=O)N[C@@H](Cc3c[nH]cn3)C(N)=O)NC(=O)[C@H](CC(N)=O)NC(=O)[C@H](Cc3ccccc3)NC(=O)[C@H](C)NC(=O)[C@H](C)NC(=O)[C@H](CC(=O)O)NC(=O)[C@H](CC(=O)O)NC1=O)NC(=O)[C@H](CCC(C)C)NC(=O)[C@H](CC(=O)O)NC2=O (stereo partly drawn) [I-583, Ac-PL3-Asp-hLeu-B5-Asp-Asp-Ala-Ala-Phe-Asn-S8-Phe-BztA-His-NH2] | 69 nM |  | 2.563 | IC50 ([1]; read-out: FP EC50): 69 nM |
| CC(=O)N1CCC[C@]12CC=CCCCC1(CCCC=CCCCCCC[C@@](C)(C(=O)N[C@@H](Cc3ccccc3)C(=O)N[C@@H](Cc3csc4ccccc34)C(=O)N[C@@H](CCC(N)=O)C(N)=O)NC(=O)[C@H](CC(N)=O)NC(=O)[C@H](Cc3ccc(N)cc3)NC(=O)[C@H](C)NC(=O)[C@H](C)NC(=O)[C@H](CCC(=O)O)NC(=O)[C@H](CC(=O)O)NC1=O)NC(=O)[C@H](C)NC(=O)[C@H](CC(=O)O)NC2=O (stereo partly drawn) [I-461, Ac-PL3-Asp-Ala-B5-Asp-Glu-Ala-Ala-4AmPhe-Asn-S8-Phe-BztA-Gln-NH2] | 125 nM | 1.94 |  |  |
| CC(=O)N1CCC[C@]12CC=CCCCC1(CCCC=CCCCCCC[C@@](C)(C(=O)N[C@@H](Cc3ccccc3)C(=O)N[C@@H](Cc3csc4ccccc34)C(=O)N[C@@H](CCC(N)=O)C(N)=O)NC(=O)[C@H](CC(N)=O)NC(=O)[C@H](Cc3cccc(C)c3)NC(=O)[C@H](C)NC(=O)[C@H](C)NC(=O)[C@H](CCC(=O)O)NC(=O)[C@H](CC(=O)O)NC1=O)NC(=O)[C@H](C)NC(=O)[C@H](CC(=O)O)NC2=O (stereo partly drawn) [I-458, Ac-PL3-Asp-Ala-B5-Asp-Glu-Ala-Ala-3MeF-Asn-S8-Phe-BztA-Gln-NH2] | 102 nM | 2.07 |  |  |
| CC(=O)N1CCC[C@]12CC=CCCCC1(CCCC=CCCCCCC[C@@](C)(C(=O)N[C@@H](Cc3ccccc3)C(=O)N[C@@H](Cc3csc4ccccc34)C(=O)N[C@H](C(N)=O)[C@@H](C)O)NC(=O)[C@H](CC(N)=O)NC(=O)[C@H](Cc3ccccc3)NC(=O)[C@H](C)NC(=O)[C@H](C)NC(=O)[C@H](CCC(=O)O)NC(=O)[C@H](CC(=O)O)NC1=O)NC(=O)[C@H](CC(C)C)NC(=O)[C@H](CC(=O)O)NC2=O (stereo partly drawn) [I-748, Ac-PL3-Asp-Leu-B5-Asp-Glu-Ala-Ala-Phe-Asn-S8-Phe-BztA-Thr-NH2] | 54 nM |  | 2.459 | IC50 ([1]; read-out: FP EC50): 54 nM |
| CC(=O)N1CCC[C@]12CC=CCCCC1(CCCC=CCCCCCC[C@@](C)(C(=O)N[C@@H](Cc3ccccc3)C(=O)N[C@@H](Cc3csc4ccccc34)C(=O)N[C@@H](CCC(N)=O)C(N)=O)NC(=O)[C@H](CC(N)=O)NC(=O)[C@H](Cc3ccccc3C)NC(=O)[C@H](C)NC(=O)[C@H](C)NC(=O)[C@H](CCC(=O)O)NC(=O)[C@H](CC(=O)O)NC1=O)NC(=O)[C@H](C)NC(=O)[C@H](CC(=O)O)NC2=O (stereo partly drawn) [I-457, Ac-PL3-Asp-Ala-B5-Asp-Glu-Ala-Ala-2MeF-Asn-S8-Phe-BztA-Gln-NH2] | 1440 nM |  | 2.0242 | IC50 ([1]; read-out: FP EC50): 1440 nM |
| CC[C@H](C)[C@@H]1NC(=O)[C@H](CC(=O)O)NC(=O)[C@]2(CC=CCCCC3(CCCC=CCCCCCC[C@@](C)(C(=O)N[C@@H](Cc4ccccc4)C(=O)N[C@@H](Cc4csc5ccccc45)C(=O)N[C@@H](CCC(N)=O)C(N)=O)NC(=O)[C@H](CCCCNC(=O)CN=[N+]=[N-])NC(=O)[C@H](Cc4ccccc4)NC(=O)[C@H](C)NC(=O)[C@H](C)NC(=O)[C@H](CCC(=O)O)NC(=O)[C@H](CC(=O)O)NC3=O)NC1=O)CCCN2C(C)=O (stereo partly drawn) [I-594, Ac-PL3-Asp-Ile-B5-Asp-Glu-Ala-Ala-Phe-[AzAc]Lys-S8-Phe-BztA-Gln-NH2] |  |  |  | IC50 ([1]; FP EC50 (nM)): 87 nM; chromatographic logD (CHI Log D procedure; pH 7.4): 2.61 |
| CC[C@H](C)[C@@H]1NC(=O)[C@H](CNS(=O)(=O)C(F)(F)F)NC(=O)[C@]2(CC=CCCCC3(CCCC=CCCCCCC[C@@](C)(C(=O)N[C@@H](Cc4ccccc4)C(=O)N[C@@H](Cc4csc5ccccc45)C(=O)N[C@@H](CCC(N)=O)C(N)=O)NC(=O)[C@H](CCC(N)=O)NC(=O)[C@H](Cc4ccccc4)NC(=O)[C@H](C)NC(=O)[C@H](C)NC(=O)[C@H](CCC(=O)O)NC(=O)[C@H](CC(=O)O)NC3=O)NC1=O)CCCN2C(C)=O (stereo partly drawn) [I-632, Ac-PL3-[Tf]Dap-Ile-B5-Asp-Glu-Ala-Ala-Phe-Gln-S8-Phe-BztA-Gln-NH2] | 5000 nM | 3.15 |  |  |
| CC(=O)N1CCC[C@]12CC=CCCCC1(CCCC=CCCCCCC[C@@](C)(C(=O)N[C@@H](Cc3cccc(F)c3)C(=O)N[C@@H](Cc3csc4ccccc34)C(=O)N[C@@H](CCC(N)=O)C(N)=O)NC(=O)[C@H](C(C)C)NC(=O)[C@H](Cc3ccccc3)NC(=O)[C@H](C)NC(=O)[C@H](C)NC(=O)[C@H](Cc3c[nH]cn3)NC(=O)[C@H](CC(=O)O)NC1=O)NC(=O)[C@H](C)NC(=O)[C@H](CC(=O)O)NC2=O (stereo partly drawn) [I-397, Ac-PL3-Asp-Ala-B5-Asp-His-Ala-Ala-Phe-Val-S8-3FF-BztA-Gln-NH2] | 2230 nM |  | 2.828 | IC50 [1, 4]: 2230 nM |
| CC[C@H](C)[C@@H]1NC(=O)[C@H](CC(=O)O)NC(=O)[C@]2(CC=CCCCC3(CCCC=CCCCCCC[C@@](C)(C(=O)N[C@@H](Cc4ccccc4)C(=O)N[C@@H](Cc4csc5ccccc45)C(=O)N[C@@H](CCC(N)=O)C(N)=O)NC(=O)[C@H](CCC(N)=O)NC(=O)[C@H](Cc4ccccc4)NC(=O)[C@H](C)NC(=O)[C@H](C)NC(=O)[C@H](CCC(=O)O)NC(=O)C[C@H](C(=O)O)NC3=O)NC1=O)CCCN2C(C)=O (stereo partly drawn) [I-674, Ac-PL3-Asp-Ile-B5-isoDAsp-Glu-Ala-Ala-Phe-Gln-S8-Phe-BztA-Gln-NH2] | 5000 nM | 1.95 |  |  |
| CC(=O)N1CCC[C@]12CC=CCCCC1(CCCC=CCCCCCC[C@@](C)(C(=O)N[C@@H](Cc3ccccc3)C(=O)N[C@@H](Cc3c[nH]c4ccccc34)C(=O)N[C@@H](CCC(N)=O)C(N)=O)NC(=O)[C@H](C(C)C)NC(=O)[C@H](Cc3ccccc3)NC(=O)[C@H](C)NC(=O)[C@H](C)NC(=O)[C@@H](CCC(=O)O)NC(=O)[C@H](CC(=O)O)NC1=O)NC(=O)[C@H](C)NC(=O)[C@H](CC(=O)O)NC2=O (stereo partly drawn) [I-182, Ac-PL3-Asp-Ala-B5-Asp-DGlu-Ala-Ala-Phe-Val-S8-Phe-Trp-Gln-NH2] |  | 2.07 |  | IC50 [1, 3]: 2800 nM |
